# Counter-ions that a name gives are not always drawn.
# Tested on: Bmi-1 protein
# Assay: Sandwich ELISA Assay (Bmi-1 protein level in HT-1080 cells after compound treatment)
# Type: cell-based
# Conditions: Table 1, Bmi-1 sandwich ELISA, read-out: ELISA EC50 value for Bmi-1 protein
# Method: Cell Seeding and Compound Treatment (Day 1):
# HT-1080 cells were seeded at 8000 cells/well (50 μL) in 96-well tissue culture plates. After the cells became adherent (3-4 hours), 2× diluted stocks of test compounds in 50 μL DMEM containing 1% DMSO (final DMSO concentration was 0.5%) were added and the plates were incubated at 37° C. under 5% CO2 for 40-48 hours.
# ELISA Plate First Antibody Preparation (Day 2):
# The First Antibody (Millipore Mouse, monoclonal to mouse Bmi-1, clone F6, catalog #05-637) diluted to […] in PBS was added (100 μL) to each well of a Nunc MaxiSorp 96-well ELISA plate. The plate was covered with a plate seal and allowed to stand overnight.
# Cell Lysate Preparation (Day 3):
# Fresh Lysis buffer (1×) was prepared on the day of the assay as follows: 1 mM EDTA, 150 mM NaCl, 0.5% Triton-X 100, 10 mM NaF, 20 mM B-Glycerophosphate, 1 mM DTT (in PBS, pH 7.2-7.4) and HALT protease inhibitor cocktail (lx) (Pierce #78410).
# A standard curve was prepared at the following Bmi-1 concentrations: 8000, 4000, 2000, 1000, 500, 250, 125 and 0 pg/mL. The Bmi-1 Recombinant Protein Standard (Novus Biologicals PCGF4 Recombinant Protein (P01), catalog # H00000648-P01) used to prepare the standard curve was stored at −80° C. On first thaw, the Recombinant Protein Standard was diluted to 10 μg/L in Blocking Buffer (1% BSA in PBS; BSA: Fisher Scientific Catalog #1600-100). Aliquots were taken and refrozen at −80° C. The aliquots may be kept at 4° C. and reused after first thaw, but only within 1-2 weeks. The Recombinant Protein Standard contains a GST-fusion tag that appears at approximately 70 Kda on Western Blot.
# The prepared ELISA plate was washed 3× with Wash Buffer (0.05% Tween-20 in PBS). The final wash was removed from the plate and the plate was blotted dry. Blocking Buffer (300 μL) (1% BSA in PBS) was added to each well. The plate was covered with a plate seal and incubated at room temperature for 1 hour. The blocked plate was washed 3× with Wash Buffer, then the final wash was removed and the plate was blotted dry. The previously prepared samples and standards were added ([…]) and the plate was covered with a plate seal and incubated at 4° C. overnight.
# The prepared ELISA plate was removed from incubation and allowed to stand at room temperature for 30 minutes, then washed and blotted dry. The Second Antibody (Cell Signaling Rabbit anti-Bmi-1, Cat #2830) diluted to 1:600 in Blocking Buffer was added (100 μL) to each well, except as needed for background control wells. The plate was covered with a plate seal and incubated for 1.5 hrs at room temperature.
# The ELISA plate was washed and blotted dry as previously described. The Third Antibody (Cell Signaling HRP conjugated anti-rabbit IgG (CellSignaling, Cat #:7074) diluted to 1:300 in Blocking Buffer was added (100 μL) to each well, except as needed for background control wells. The plate was incubated for 1 hr at room temperature.
# The plate was washed and blotted dry, then a previously prepared TMB substrate (TMB substrate kit, Pierce catalog #34021) (prepared by mixing kit reagents 1:1) (100 μL) was added per well. The plate was incubated for 20-30 minutes at room temperature in the dark, then Stop Solution (2 M sulfuric acid in water) (50 μL) was added per well. The plates were read at OD450 (experimental) and OD570 (reference).
row,Structure (SMILES),EC50
1,"Nc1cc(Nc2ccc(C(F)(F)F)cc2)nc(-c2c(CO)nc3ccccn23)c1 [289a, [3-(4-amino-6-{[4-(trifluoromethyl)phenyl]amino}pyridin-2-yl)imidazo[1,2-a]pyridin-2-yl)methanol hydrochloride (1:2)]",10 to 100 nM
2,"COc1ccc(Nc2cccc(-c3c(C(F)(F)F)nc4ccccn34)n2)cc1Cl [Cpd 3, N-(3-chloro-4-methoxyphenyl)-6-[2-(trifluoromethyl)imidazo[1,2-a]pyridin-3-yl]pyridin-2-amine]",1 to 10 nM
3,"COc1ccc(Nc2cccc(-c3c(C(F)(F)F)nc4ccccn34)n2)cc1 [Cpd 4, N-(4-methoxyphenyl)-6-[2-(trifluoromethyl)imidazo[1,2-a]pyridin-3-yl]pyridin-2-amine]",1 to 10 nM
4,"Fc1ccc(Nc2cncc(-c3c(C(F)(F)F)nc4ccccn34)n2)cc1 [Cpd 9, N-(4-fluorophenyl)-6-[2-(trifluoromethyl)imidazo[1,2-a]pyridin-3-yl]pyrazin-2-amine]",100 to 3000 nM
5,"COc1ccc(Nc2cncc(-c3c(C(F)(F)F)nc4ccccn34)n2)cc1Cl [Cpd 22, N-(3-chloro-4-methoxyphenyl)-6-[2-(trifluoromethyl)imidazo[1,2-a]pyridin-3-yl]pyrazin-2-amine]",1 to 10 nM
6,N#Cc1ccc(Nc2cncc(-c3c(C(F)(F)F)nc4ccccn34)n2)cc1 [Cpd 23],10 to 100 nM
7,"FC(F)Oc1ccc(Nc2cncc(-c3c(C(F)(F)F)nc4ccccn34)n2)cc1 [Cpd 24, N-[4-(difluoromethoxy)phenyl]-6-[2-(trifluoromethyl)imidazo[1,2-a]pyridin-3-yl]pyrazin-2-amine]",< 1 nM
8,"Fc1ccc(Nc2cncc(-c3c(C(F)(F)F)nc4ccccn34)n2)cc1F [Cpd 26, N-(3,4-difluorophenyl)-6-[2-(trifluoromethyl)imidazo[1,2-a]pyridin-3-yl]pyrazin-2-amine]",100 to 3000 nM
9,"FC(F)Oc1ccc(Nc2cccc(-c3c(C(F)(F)F)nc4ccccn34)n2)cc1 [Cpd 27, N-[4-(difluoromethoxy)phenyl]-6-[2-(trifluoromethyl)imidazo[1,2-a]pyridin-3-yl]pyridin-2-amine]",1 to 10 nM
10,"FC(F)(F)c1nc2ccccn2c1-c1cncc(Nc2ccc(Cl)c(Cl)c2)n1 [Cpd 29, N-(3,4-dichlorophenyl)-6-[2-(trifluoromethyl)imidazo[1,2-a]pyridin-3-yl]pyrazin-2-amine]",10 to 100 nM
11,"FC(F)(F)c1nc2ccccn2c1-c1cncc(Nc2ccc(Br)c(Cl)c2)n1 [Cpd 31, N-(4-bromo-3-chlorophenyl)-6-[2-(trifluoromethyl)imidazo[1,2-a]pyridin-3-yl]pyrazin-2-amine]",10 to 100 nM
12,"Cc1nc2ccccc2n1-c1cccc(Nc2ccc(OC(F)(F)F)cc2)n1 [Cpd 36, 6-(2-methyl-1H-benzimidazol-1-yl)-N-[4-(trifluoromethoxy)phenyl]pyridin-2-amine]",100 to 3000 nM
13,"FC(F)Oc1ccc(Nc2cccc(-n3c(C(F)(F)F)nc4ccccc43)n2)cc1 [Cpd 38, N-[4-(difluoromethoxy)phenyl]-6-[2-(trifluoromethyl)-1H-benzimidazol-1-yl]pyridin-2-amine]",10 to 100 nM
14,"FC(F)(F)Oc1ccc(Nc2cccc(-n3c(C(F)(F)F)nc4ccccc43)n2)cc1 [Cpd 39, N-[4-(trifluoromethoxy)phenyl]-6-[2-(trifluoromethyl)-1H-benzimidazol-1-yl]pyridin-2-amine]",100 to 3000 nM

# Continued, values first:
row,EC50,Structure (SMILES)
1,10 to 100 nM,"Cc1nc2ccccc2n1-c1cncc(Nc2ccc(CN)cc2)n1 [154a, N-[4-(aminomethyl)phenyl]-6-(2-methyl-1H-benzimidazol-1-yl)pyrazin-2-amine trifluoroacetate]"
2,1 to 10 nM,"FC(F)(F)c1ccc(Nc2cncc(-c3c(C(F)(F)F)nc4ccccn34)n2)cc1 [Cpd 6, 6-[2-(trifluoromethyl)imidazo[1,2-a]pyridin-3-yl]-N-[4-(trifluoromethyl)phenyl]pyrazin-2-amine]"
3,< 1 nM,"COc1ccc(Nc2cncc(-c3c(C(F)(F)F)nc4ccccn34)n2)cc1F [Cpd 7, N-(3-fluoro-4-methoxyphenyl)-6-[2-(trifluoromethyl)imidazo[1,2-a]pyridin-3-yl]pyrazin-2-amine]"
4,1 to 10 nM,"COc1ccc(Nc2cccc(-c3c(C(F)(F)F)nc4ccccn34)n2)cc1F [Cpd 8, N-(3-fluoro-4-methoxyphenyl)-6-[2-(trifluoromethyl)imidazo[1,2-a]pyridin-3-yl]pyridin-2-amine]"
5,1 to 10 nM,"FC(F)(F)c1nc2ccccn2c1-c1cncc(Nc2ccc(Cl)cc2)n1 [Cpd 10, N-(4-chlorophenyl)-6-[2-(trifluoromethyl)imidazo[1,2-a]pyridin-3-yl]pyrazin-2-amine]"
6,10 to 100 nM,"FC(F)(F)Oc1ccc(Nc2cncc(-c3c(C(F)(F)F)nc4ccccn34)n2)cc1 [Cpd 11, N-[4-(trifluoromethoxy)phenyl]-6-[2-(trifluoromethyl)imidazo[1,2-a]pyridin-3-yl]pyrazin-2-amine]"
7,10 to 100 nM,"FC(F)(F)Oc1ccc(Nc2cccc(-c3c(C(F)(F)F)nc4ccccn34)n2)cc1 [Cpd 16, N-[4-(trifluoromethoxy)phenyl]-6-[2-(trifluoromethyl)imidazo[1,2-a]pyridin-3-yl]pyridin-2-amine]"
8,1 to 10 nM,"FC(F)(F)c1nc2ccccn2c1-c1cccc(Nc2ccc(Cl)cc2)n1 [Cpd 17, N-(4-chlorophenyl)-6-[2-(trifluoromethyl)imidazo[1,2-a]pyridin-3-yl]pyridin-2-amine]"
9,1 to 10 nM,"Fc1cc(Nc2cncc(-c3c(C(F)(F)F)nc4ccccn34)n2)ccc1Cl [Cpd 25, N-(4-chloro-3-fluorophenyl)-6-[2-(trifluoromethyl)imidazo[1,2-a]pyridin-3-yl]pyrazin-2-amine]"
10,1 to 10 nM,"Fc1cc(Nc2cncc(-c3c(C(F)(F)F)nc4ccccn34)n2)ccc1Br [Cpd 30, N-(4-bromo-3-fluorophenyl)-6-[2-(trifluoromethyl)imidazo[1,2-a]pyridin-3-yl]pyrazin-2-amine]"
11,10 to 100 nM,"Cc1nc2ccccc2n1-c1cccc(Nc2ccc(OC(F)F)cc2)n1 [Cpd 35, N-[4-(difluoromethoxy)phenyl]-6-(2-methyl-1H-benzimidazol-1-yl)pyridin-2-amine]"
12,10 to 100 nM,"Cc1nc2ccccc2n1-c1cccc(Nc2ccc(C(F)(F)F)cc2)n1 [Cpd 37, 6-(2-methyl-1H-benzimidazol-1-yl)-N-[4-(trifluoromethyl)phenyl]pyridin-2-amine]"

# Same assay, conditions: read-out: ELISA EC50 value for Bmi-1 protein, Table 1, Bmi-1 sandwich ELISA
row,Structure (SMILES),EC50
1,"FC(F)(F)c1ccc(Nc2cccc(-c3c(C(F)(F)F)nc4ccccn34)n2)cc1 [Cpd 18, 6-[2-(trifluoromethyl)imidazo[1,2-a]pyridin-3-yl]-N-[4-(trifluoromethyl)phenyl]pyridin-2-amine]",1 to 10 nM
2,"COc1ccc(Nc2cccc(-n3c(C)nc4ccccc43)n2)cc1 [Cpd 32, N-(4-methoxyphenyl)-6-(2-methyl-1H-benzimidazol-1-yl)pyridin-2-amine]",1 to 10 nM
3,"COc1ccc(Nc2cccc(-n3c(C(F)(F)F)nc4ccccc43)n2)cc1 [Cpd 33, N-(4-methoxyphenyl)-6-[2-(trifluoromethyl)-1H-benzimidazol-1-yl]pyridin-2-amine]",10 to 100 nM
4,"COc1ccc(Nc2ccc(C#N)c(-c3c(C(F)(F)F)nc4ccccn34)n2)cc1 [Cpd 34, 6-[(4-methoxyphenyl)amino]-2-[2-(trifluoromethyl)imidazo[1,2-a]pyridin-3-yl]pyridine-3-carbonitrile]",100 to 3000 nM

# Source: patent publication US10584115B2, “Substituted pyridine and pyrazine BMI-1 inhibitors” (PTC Therapeutics, Inc., priority 2013, dated 2020)
